Legend:
[1] = DPPH radical scavenging test; format: biochemical; conditions: Example 6 at a dose of 0.1 mg/ml; absorbance at 520 nm
Description: (§1) In this example, free radical-scavenging ability was determined as an indicator of antioxidant action. Specifically, free radicals produced by xanthine oxidase were determined by 1,1-diphenyl-2-picrylhydrayil (DPPH, Aldrich). First, xanthine oxidase (Aldrich) was dissolved in 0.01 M phosphate buffer. Hypoxanthine was added to this solution, and the solution was warmed at 37° C. to generate free radicals. To this solution, the composition of Example 6 was added. Further, 0.1 M DPPH solution was added to determine absorbance at 520 nm. Superoxide dismutase (SOD) activity was also determined using Electron Spin Resonance (ESR) in xanthine and xanthine-odixase system. In both cases, vitamin E was used as a positive control.

[2] = Superoxide dismutase (SOD) activity by ESR in xanthine and xanthine-oxidase system; format: biochemical
Description: as §1

SOD activity [2]: 90 units/g
Substance: vitamin E [VitaminE]
free radical-scavenging ability (DPPH) [1]: 460 units/g

— patent publication US20110151031A1, “COMPOSITIONS AND METHODS FOR UTILIZING THE SAME” (DBC, LLC, priority 2008, published 2011)
